ChEMBL document CHEMBL2074071, “Fluorescent modified phosphatidylcholine floppase activity of reconstituted multidrug resistance-associated protein MRP1” (Biochim Biophys Acta, 2004)

Biological target: Multidrug resistance-associated protein 1 (Homo sapiens, UniProt P33527)
Assay: TP_TRANSPORTER: translocation from outer to inner leaflet in MRP1-asolectin proteoliposome
Format: functional, subcellular

Sequence of Multidrug resistance-associated protein 1 (P33527 whole entry): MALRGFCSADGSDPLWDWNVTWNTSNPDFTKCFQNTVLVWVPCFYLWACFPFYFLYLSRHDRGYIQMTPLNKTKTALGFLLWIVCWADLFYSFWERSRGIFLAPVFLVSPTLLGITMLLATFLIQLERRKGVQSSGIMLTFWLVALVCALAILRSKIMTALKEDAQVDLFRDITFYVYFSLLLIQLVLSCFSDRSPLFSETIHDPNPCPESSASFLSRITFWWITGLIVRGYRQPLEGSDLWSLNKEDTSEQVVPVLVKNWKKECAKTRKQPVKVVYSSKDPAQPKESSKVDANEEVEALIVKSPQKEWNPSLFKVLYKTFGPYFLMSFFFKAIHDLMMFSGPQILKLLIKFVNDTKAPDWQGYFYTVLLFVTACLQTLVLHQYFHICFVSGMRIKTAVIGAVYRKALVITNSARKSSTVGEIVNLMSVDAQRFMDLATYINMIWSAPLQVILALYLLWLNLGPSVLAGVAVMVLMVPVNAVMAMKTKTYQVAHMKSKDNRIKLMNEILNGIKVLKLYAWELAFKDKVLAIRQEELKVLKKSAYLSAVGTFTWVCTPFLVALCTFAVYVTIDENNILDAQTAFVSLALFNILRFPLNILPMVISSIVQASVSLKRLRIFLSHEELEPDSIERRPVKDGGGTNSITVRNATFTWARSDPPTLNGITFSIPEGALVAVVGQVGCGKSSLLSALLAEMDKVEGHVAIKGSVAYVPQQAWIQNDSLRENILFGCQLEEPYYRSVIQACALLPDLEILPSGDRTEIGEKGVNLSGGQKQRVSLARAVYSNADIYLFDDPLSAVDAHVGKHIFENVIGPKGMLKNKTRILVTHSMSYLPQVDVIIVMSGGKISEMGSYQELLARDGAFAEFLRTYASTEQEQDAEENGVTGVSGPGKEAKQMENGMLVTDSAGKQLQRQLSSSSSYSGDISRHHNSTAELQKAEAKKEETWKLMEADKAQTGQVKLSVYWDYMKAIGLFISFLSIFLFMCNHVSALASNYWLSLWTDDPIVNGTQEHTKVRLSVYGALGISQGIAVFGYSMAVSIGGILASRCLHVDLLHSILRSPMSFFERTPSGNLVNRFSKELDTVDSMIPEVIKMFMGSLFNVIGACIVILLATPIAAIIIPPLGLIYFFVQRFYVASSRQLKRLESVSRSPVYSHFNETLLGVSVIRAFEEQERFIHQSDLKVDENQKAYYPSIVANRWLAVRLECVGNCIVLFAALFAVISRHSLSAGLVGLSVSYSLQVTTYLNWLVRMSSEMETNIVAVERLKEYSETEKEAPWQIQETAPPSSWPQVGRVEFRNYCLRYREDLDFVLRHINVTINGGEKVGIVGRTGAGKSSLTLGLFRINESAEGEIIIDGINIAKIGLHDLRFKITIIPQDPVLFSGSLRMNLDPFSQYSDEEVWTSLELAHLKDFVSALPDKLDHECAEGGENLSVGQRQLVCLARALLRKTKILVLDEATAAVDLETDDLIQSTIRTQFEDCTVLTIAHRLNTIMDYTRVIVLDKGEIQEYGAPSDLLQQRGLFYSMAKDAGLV

Activity: substrate []
SMILES: CCCCCC(=O)OCC(COP(=O)([O-])OCC[N+](C)(C)c1ccc([N+](=O)[O-])c2nonc12)OC(=O)CCCCC (stereo unspecified)
